As usually defined, the AC50 is the midpoint of the concentration-response curve, whichever way the signal moves.

The record followed here is PubChem BioAssay AID493130 (Broad Institute, 2011).

Results filed as inconclusive are left out. Calls of active or inactive are those of the source.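 How the source made its calls: active means signal-lowering compounds whose fitted half-maximal concentration is at most ten times their highest tested dose; inconclusive means flat fit between -30 and -70%, or poor fit; inactive means flat within 30%, signal rising, or potency beyond limit.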

The first assay has as its target POS-1 (Caenorhabditis elegans) binding to mex-3 RNA. Put plainly: C. elegans POS-1 RNA interaction disruptors – biochemical, fluorescence polarization, cherry-picked samples, set 2, counter-screen for MEX-5 RNA-binding inhibitor project, dose response (AID 493130).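 Further: POS-1 as maltose binding protein fusion made in E. coli with FITC RNA.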 The settings on record: POS-1/mex-3 RNA fluorescence polarization, 1 h. On the technique in general: Fluorescence polarisation rises when a labelled molecule tumbles more slowly, as on binding a larger partner.
`Cc1cc[n+](-c2[nH]c(=O)sc2/C=N/NC([S-])=Nc2ccccc2)cc1`: the concentration at half-maximal activity (AC50) is 2.39 µM.
Still for that read-out and setting: in the case of `CCCCOc1ccc2c(c1)/C(=C(\C(Cl)=C(Cl)Cl)[N+](=O)[O-])N2` it was 8.54 µM.
The same measure, in the same setting: in the case of `NS(=O)(=O)c1ccc(N=Nc2c(=O)[nH]n3c(=O)c4c([nH]c23)CCCC4)cc1` it was 0.251 µM.
Consider `O=C(Nc1nc2c(s1)CN(Cc1ccccc1)CC2)c1cccc(S(=O)(=O)N2CCc3ccccc32)c1`, for which the AC50 is 7.79 µM.
On the same count and under the same terms, the result for `CCCCN1C(=O)C2Cc3c([nH]c4ccccc34)CN2C1=S` (stereo not drawn) reads 8.04 µM; that for `CC(=O)Nc1ccc2cc3ccc(NC(C)=O)cc3nc2c1`, 6.38 µM; that for `COc1ccc(/C(O)=C/c2nc3ccccc3n(-c3ccccc3)c2=O)cc1`, 3.23 µM.
For the molecule `CNC(=O)/C(C#N)=C/c1ccc(-c2nc3ccccc3s2)o1`, the concentration at half-maximal activity (AC50) was 3.91 µM.
Take `Nc1c(C(=O)c2cccs2)sc2nsc(SCCN3CCCCC3)c12`: the AC50 is 6.39 µM.
Still for that read-out and setting: the result for `O=C(NNC(=O)c1ccccc1O)c1ccc(S(=O)(=O)Nc2ccccc2)cc1` reads 4.17 µM; that for `CN(C)[C@@H]1C(=O)C(C(N)=O)=C(O)[C@@]2(O)C(=O)C3=C(O)c4c(O)cccc4[C@@](C)(O)[C@H]3[C@H](O)[C@@H]12`, 4.07 µM; that for `Cc1cc(=O)n2[nH]c(=O)c(N=Nc3ccccc3)c2[nH]1`, 0.306 µM.
On to `Cc1cccc(N=Nc2c(O)[nH]c3ccc(F)cc23)c1`, for which the concentration at half-maximal activity (AC50) was 1.87 µM.
Consider `CN1CC=C2C(C#N)=C(N)C(C#N)(C#N)[C@H](c3ccoc3)[C@H]2C1`, for which the concentration at half-maximal activity (AC50) is 5.4 µM.

The same assay, now with this note: POS-1/mex-3 RNA fluorescence polarization, 1 h; at 10 µM (top of the series).
Take `Cc1cc(C)c([C@@H]2C[C@H]3CN(C4CCCC4)C(=O)[C@]34CCCN24)c(-n2cccn2)c1`: the “activity change, negative = inhibition” value is “inactive”.
Still for that read-out and setting: the result for `O=C(N/N=C/c1cc2c(cc1Cl)OCO2)c1ccccn1` reads “inactive”.
`C[C@H](O)CC1=C[C@H](O)[C@@H](C)OC1=O`: the “activity change, negative = inhibition” value was “inactive”.
The same measure, in the same setting: the result for `C#CCOCCOCCOCCNc1nc(N2CCN(C(=O)[C@H]([C@@H](C)O)n3cc(CCCCN)nn3)CC2)nc(N2CCN(C(=O)[C@H](C)n3cc(CCCN=C(N)N)nn3)CC2)n1` reads “inactive”.
Still for that read-out and setting: in the case of `CCc1ccc(S(=O)(=O)/N=C2\C=C(Nc3ccc(C(=O)O)cc3)C(=O)c3ccccc32)cc1` it was “inactive”; in that of `COc1ccc(OC)c(Nc2nc(-c3ccc(O)c(O)c3)cs2)c1`, “inactive”.
The same measure, in the same setting: in the case of `CCc1nnc(NC(=O)CCN2C(=O)/C(=C/c3cc(OC)c(OC)c(OC)c3)SC2=S)s1` it was “inactive”; in that of `COc1ccc(CC(=O)NNc2ncnc3c2cnn3C)cc1OC`, “inactive”; in that of `Cc1ccc(Nc2nc(-c3ccc(C)cc3)c(CC(=O)O)s2)cc1`, “inactive”.
For the molecule `Cc1c(C(=O)NNC(=S)Nc2ccc(S(N)(=O)=O)cc2)oc2ccccc12`, the “activity change, negative = inhibition” value was “inactive”.
As to `COC(=O)c1ccccc1-c1ccc(C(c2c(C)[nH][nH]c2=O)c2c(C)[nH][nH]c2=O)o1`, the “activity change, negative = inhibition” value was “inactive”.
In the case of `COc1cc2c(cc1OC)[C@@H](Cc1ccc(OCCC#N)cc1)N(C)CC2`, the “activity change, negative = inhibition” value is “inactive”.
On to `COc1ccc(NC(=O)c2sc3nc(Cc4ccccc4)cc(C(F)(F)F)c3c2N)cc1OC`, for which the “activity change, negative = inhibition” value was “inactive”.
Still for that read-out and setting: the result for `Nc1c(C(=O)Nc2ccccc2)sc2nc3c(c(-c4ccco4)c12)CCC3` reads “inactive”.
As for `Cc1cccn2c(=O)c3cc(C(=O)NCCCn4ccnc4)n(C)c3nc12`, the “activity change, negative = inhibition” value is “inactive”.
On the same count and under the same terms, the result for `COc1ccc(NS(=O)(=O)c2cccc(C(=O)NNC(=O)c3cc(S(N)(=O)=O)ccc3OC)c2)cc1` reads “inactive”; that for `Cc1cc(C)c2ccc(=S)[nH]c2n1`, “inactive”.
Consider `COC(=O)c1cccc(-c2ccc(C(c3c(C)[nH][nH]c3=O)c3c(C)[nH][nH]c3=O)o2)c1`, for which the “activity change, negative = inhibition” value is “inactive”.
`CS(=O)(=O)Nc1ccc(-c2ccc(/C=C3\SC(N)=NC3=O)o2)cc1`: the “activity change, negative = inhibition” value was “inactive”.
The same measure, in the same setting: in the case of `CC(=O)Nc1ccc(S(=O)(=O)/N=C2/NC(=O)/C(=C\c3ccco3)S2)cc1` it was “inactive”.
The same measure, in the same setting: in the case of `Cn1ncc2c(NNC(=O)c3ccc(Cl)cc3Cl)ncnc21` it was “inactive”; in that of `CCN(CC)c1ccc2nc3ccccc3[n+](CC)c2c1`, “inactive”.
On the same count and under the same terms, the result for `NC1=NC(=O)/C(=C\C=C\c2ccccc2)S1` reads “inactive”; that for `CCCCC1=CC2=C(c3ccco3)C(=O)C(C)(OC(=O)c3ccc(OC)cc3)C(=O)C2=CN1C(CO)CO` (stereo not drawn), “inactive”; that for `COC(=O)CCC(=O)NC(=S)Nc1sc(C)c(C)c1C(N)=O`, “inactive”.
`Cn1nc(C(=O)NNC(=O)c2ccc(Cl)cc2)ccc1=O`: the “activity change, negative = inhibition” value was “inactive”.
On the same count and under the same terms, the result for `NC1=NC(=O)/C(=C\c2ccc(O)c([N+](=O)[O-])c2)S1` reads “inactive”; that for `Cn1c(O)c(C2=c3ccccc3=NC2=O)[nH]c1=S`, “inactive”.
On to `COc1ccc(/C=N/Nc2nc(=O)[nH]nc2C)cc1[N+](=O)[O-]`, for which the “activity change, negative = inhibition” value was “inactive”.
Same read-out and setting: in the case of `CCCCN(C(=O)C1=COCCO1)c1c(N)n(Cc2ccccc2)c(=O)[nH]c1=O` it was “inactive”; in that of `COc1ccc(/C=N/NC(=S)Nc2cccc(C(=O)O)c2)cc1`, “inactive”; in that of `O=S(=O)(O)c1cc(O)c2c(O)c(N=Nc3cc(Cl)ccc3O)c(S(=O)(=O)O)cc2c1`, “inactive”.
Still for that read-out and setting: in the case of `COc1ccc(-c2csc(Nc3ccc(S(N)(=O)=O)cc3)n2)cc1OC` it was “inactive”; in that of `CS(=O)(=O)c1nsc2nc(=O)c(/C=C3\C=Nc4ccccc43)c(N)n12`, “inactive”; in that of `COc1cccc2cc(-c3nc(-c4cccs4)cs3)c(=O)oc12`, “inactive”.
Take `CC(C)C(=O)OCC(=O)Nc1ccc2c(c1)CCC2`: the “activity change, negative = inhibition” value was “inactive”.
On to `O=c1[nH]c2ccccc2n1Cc1ccc(Cl)cc1`, for which the “activity change, negative = inhibition” value is “inactive”.
The same measure, in the same setting: the result for `Nc1ccc(S(=O)(=O)NNC(=O)C(=O)NNc2ccccn2)cc1` reads “inactive”; that for `CCOC(=O)c1ccc(N=Nc2c(C)c(C#N)c(O)[nH]c2=O)cc1`, “inactive”.
As for `CC(C)OC(=O)c1c2c(n3ccccc13)C(=O)c1ccccc1C2=O`, the “activity change, negative = inhibition” value was “inactive”.
As for `Oc1sc(C=Nc2ccc(F)cc2)c2ccccc12`, the “activity change, negative = inhibition” value was “inactive”.
`O=C(O)c1c2c(nc3ccccc13)/C(=C/c1ccc(O)cc1)CC2`: the “activity change, negative = inhibition” value is “inactive”.
As for `COc1ccc(-n2c(C)nc3cc(C(=O)O)ccc32)cc1`, the “activity change, negative = inhibition” value was “inactive”.
As for `Cc1cccc(/C=N/NC(=O)Cn2nnnc2N)n1`, the “activity change, negative = inhibition” value was “inactive”.
Regarding `FC(F)(F)c1ccc(Cl)c(-n2c(-c3cc(-c4ccco4)[nH]n3)n[nH]c2=S)c1`, the “activity change, negative = inhibition” value is “inactive”.
As for `Cc1cccc(C(=O)NNC(=O)c2ccco2)c1O`, the “activity change, negative = inhibition” value was “inactive”.
The same measure, in the same setting: in the case of `COc1ccc(C(=O)N2C(=S)NC(=O)/C2=C\c2ccc(C)cc2)cc1` it was “inactive”; in that of `O=C1OC2(CCCC2)OC(=O)C1=Cc1c[nH]c2ccccc12`, “inactive”.
The same measure, in the same setting: in the case of `CCn1c(O)c(N=NC(=O)CNC(=O)/C=C/c2ccco2)c2ccccc21` it was “inactive”; in that of `CCOC(=O)c1c(-c2ccc(C)o2)csc1NC(=S)NC(=O)c1cccs1`, “inactive”; in that of `O=C(NC1CCSc2ccccc21)c1cccc(Br)c1` (stereo not drawn), “inactive”.
Still for that read-out and setting: in the case of `Cc1cc(C)c2ccc(C(=O)O)nc2c1O` it was “inactive”; in that of `COC(=O)/C=C1/S/C(=N/NC(=O)c2ccc(Cl)cc2Cl)NC1=O`, “inactive”.
Consider `CCOc1cc(/C=N/Nc2nc(=O)[nH]nc2C)ccc1O`, for which the “activity change, negative = inhibition” value was “inactive”.
On the same count and under the same terms, in the case of `O=C(/C=C(\O)c1ccccc1)C(=O)NNC(=O)c1ccccc1` it was “inactive”.
Same read-out and setting: the result for `O=C(O)c1ccc2c(c1)ncn2C1CCCCC1` reads “inactive”.
Consider `CSc1ccc(/C=C/C(=O)c2ccc(NC(C)=O)cc2)cc1`, for which the “activity change, negative = inhibition” value is “inactive”.
Still for that read-out and setting: the result for `COc1ccc(N=C2S/C(=C\c3cc(C)n(C)c3C)C(=O)N2C)cc1` reads “inactive”; that for `COc1ccc(NC(=O)c2cccs2)cn1`, “inactive”.
Same read-out and setting: in the case of `CCCC(=O)Nc1ccc(NC(=O)c2cccs2)cn1` it was “inactive”; in that of `O=[N+]([O-])c1ccc(/C=N/n2c(CO)nc3ccccc32)s1`, “inactive”.
Take `Oc1[nH]c(N=C2N=c3ccccc3=N2)c2ccccc12`: the “activity change, negative = inhibition” value was “inactive”.
Turning to `Fc1ccc(N=c2ssnc2Cl)c(F)c1`, the “activity change, negative = inhibition” value was “inactive”.
Consider `CC(=O)c1cc(NC(=O)c2ccc([N+](=O)[O-])cc2)c(=O)oc1C`, for which the “activity change, negative = inhibition” value was “inactive”.
Still for that read-out and setting: in the case of `O=C1OC(C(=O)O)Cc2ccccc21` (stereo not drawn) it was “inactive”; in that of `N=c1c(C(=O)NCC2CCCO2)cc2c(=O)n3ccccc3nc2n1Cc1ccc(Cl)cc1` (stereo not drawn), “inactive”; in that of `COc1cccc(NC(=S)NNC(=O)C(C)n2nc(C)c([N+](=O)[O-])c2C)c1` (stereo not drawn), “inactive”.
As to `C#CCN1C(=O)S/C(=C\c2ccc(N3CCOCC3)cc2C)C1=O`, the “activity change, negative = inhibition” value was “inactive”.
In the case of `CCOc1nc(-c2ccccc2)c2cc(Br)ccc2n1`, the “activity change, negative = inhibition” value was “inactive”.
